According to patent publication US9919066B2, “Electroporation of tissue products” (LifeCell Corporation, priority 2013, dated 2018):

Legend:
[1] = H&E histological examination of porcine dermis after electroporation; settings: 0.2% PAA
Description: FIG. 1A-C show hematoxylin and eosin (H&E) staining of 1 cm by 1 cm samples of porcine dermis after exposure for 15 milliseconds to one electrical pulse of 0V (FIG. 1A), 40V (FIG. 1B), or 80V (FIG. 1C), according to certain embodiments of the present disclosure.
(§1) To determine the impact of pulse voltage on bacteria present on tissue samples, 1 cm by 1 cm pieces of porcine dermis (1 mm thickness) were electroporated in 2 ml of 0.2% peracetic acid (PAA) at three different pulse voltages: 0V, 40V and 80V. The 0V samples were used as a control condition. Electroporation plates (1 cm by 2 cm conducting metal plates) were set 2 mm apart and a 1 mm thick piece of tissue was placed between them. Electrical pulses were delivered for 10 ms. All conditions were tested in triplicates.
The tissue samples exposed to 40V and 80V pulse voltages had 0 bacteria. […] Porcine dermis was also stained using hematoxylin and eosin (H&E).

[2] = system: bacteria present on tissue samples; assay: Effect of pulse voltage on bacteria counts of porcine dermis electroporated in PAA; format: cell-based; settings: 0.2% PAA; for bacteria count: 10 ms, triplicates
Description: as §1
Following electroporation each piece of tissue was removed and rinsed in a PAA neutralizing wash for 5 minutes and then placed in 10 ml of phosphate buffered saline (PBS). The purpose of the neutralizing wash was to prevent further bacterial kill from residual PAA following electroporation that could confound the results.
Stomaching was used to extract the bacteria from each piece of tissue and bacteria counts were performed following incubation of culture plates for 2 days at 37° C. Stomaching is a mechanical extraction method used to remove microorganisms from samples of foods, fabrics, swabs, or other soft materials such as human or animal tissue. […] The resulting compression and shearing forces elute deep-seated bacteria. Once the agitation process is completed, samples of the eluent are taken for microbial enumeration and subsequent identification.

[3] = system: bioburden (bacteria) on porcine dermis; assay: Effect of pulse length on bioburden of porcine dermis electroporated in PAA; format: cell-based; settings: 0.2% PAA
Description: […] 0 ms pulses were used as a control condition. All conditions were tested in triplicates.
Electroporation plates (1 cm by 2 cm conducting metal plates) were set 2 mm apart and a 1 mm thick piece of tissue was placed between them. Pulse voltage was set at 80V. Following electroporation each piece of tissue was removed and rinsed in a PAA neutralizing wash for 5 minutes and then placed in 10 ml of PBS.
Stomaching was used to extract the bacteria from each piece of tissue and bacteria counts were performed following incubation of culture plates for 2 days at 37° C. […] Minimal bacterial colony forming units (CFU) were detected on tissue samples following 15 ms pulse.

Compound: CC(=O)OO [PAA, peracetic acid]
- changes in the collagen structure (H&E histology) ([1]; exposure to 40 volts): no detectable change
- changes in the collagen structure (H&E histology) ([1]; exposure to 80 volts): potential changes in the collagen structure
- bacterial colonies ([2]; 0V (control condition, no pulse)): too numerous to count
- bacteria count ([2]; 40V pulse): 0
- bacteria count ([2]; 80V pulse): 0
- Viable Cell Count ([3]; 80V, pulse length 1 ms, 100 pulses): 430 CFU
- Viable Cell Count ([3]; 80V, pulse length 5 ms, 1 pulse): 300 CFU
- Viable Cell Count ([3]; 80V, pulse length 10 ms, 1 pulse): 140 CFU
- Viable Cell Count ([3]; pulse length 0 ms, no pulses (control condition)): 26000 CFU
